Columns and labels:
[1] = Entrapment efficiency of LNP preparation encapsulating EGFP mRNA; format: physicochemical; conditions: LNP ionizable lipid/DOPE/cholesterol/DSPE-PEG2000 35/16/46.5/2.5 mol% encapsulating EGFP mRNA
Description: The ionizable lipid compound of Example 1 was dissolved in ethanol with DOPE, cholesterol and DSPE-PEG2000 (all purchased from AVT (Shanghai) Pharmaceutical Technology Co., Ltd.) at a molar ratio of 35:16:46.5:2.5 to prepare ethanol lipid solution, and enhanced green fluorescent protein (EGFP) mRNAs (Shanghai Maximna Pharmaceutical Engineering Co., Ltd., JN-4201) were diluted in 20 mM citrate buffer (pH=6.1) to obtain mRNA aqueous solution. Ethanol lipid solution and mRNA aqueous solution were mixed at a volume ratio of 1:3 by using a microfluidic device (Micro&Nano (Shanghai) Instrument Technology Co., Ltd., model: INano™ML), LNPs were prepared with a weight ratio of approximately 10:1 between total lipids and mRNAs. The medium was replaced by ultrafiltration, ethanol was removed and volumed with DPBS. Finally, the lipid nanoparticles were filtered through a 0.2 μm sterile filter to obtain a LNP formulation encapsulating eGFP mRNA using ionizable lipid/DOPE/cholesterol/DSPE-PEG2000 (35/16/46.5/2.5 mol %), the concentration of mRNAs being 0.002 mg/mL-0.5 mg/mL. […]

[2] = Size and polydispersity index PDI of lipid nanoparticles (Malvern Zetasizer Nano ZS); format: physicochemical; conditions: LNP ionizable lipid/DOPE/cholesterol/DSPE-PEG2000 35/16/46.5/2.5 mol% encapsulating EGFP mRNA; for Particle Size: in nm (unit assumed)
Description: The ionizable lipid compound of Example 1 was dissolved in ethanol with DOPE, cholesterol and DSPE-PEG2000 (all purchased from AVT (Shanghai) Pharmaceutical Technology Co., Ltd.) at a molar ratio of 35:16:46.5:2.5 to prepare ethanol lipid solution, and enhanced green fluorescent protein (EGFP) mRNAs (Shanghai Maximna Pharmaceutical Engineering Co., Ltd., JN-4201) were diluted in 20 mM citrate buffer (pH=6.1) to obtain mRNA aqueous solution. Ethanol lipid solution and mRNA aqueous solution were mixed at a volume ratio of 1:3 by using a microfluidic device (Micro&Nano (Shanghai) Instrument Technology Co., Ltd., model: INano™ML), LNPs were prepared with a weight ratio of approximately 10:1 between total lipids and mRNAs. The medium was replaced by ultrafiltration, ethanol was removed and volumed with DPBS. Finally, the lipid nanoparticles were filtered through a 0.2 μm sterile filter to obtain a LNP formulation encapsulating eGFP mRNA using ionizable lipid/DOPE/cholesterol/DSPE-PEG2000 (35/16/46.5/2.5 mol %), the concentration of mRNAs being 0.002 mg/mL-0.5 mg/mL.
Using Malvern Zetasizer Nano ZS (Malvern UK), the size and polydispersity index PDI of lipid nanoparticles were measured at […].

[3] = system: CHO cells; experiment: In vitro transfection of CHO cells with EGFP mRNA LNP preparation; format: cell-based, Chinese hamster
Description: (§1) The description is based on peripheral blood mononuclear cells PBMC (Shanghai Oribiotech Co., Ltd.), human peripheral blood leukemia T cell Jurkat (ATCC), tumor infiltrating lymphocyte TIL (isolated from resected tumor tissue of a liver cancer patient, the preparation method refers to CN114763530A), mouse bone marrow-derived dendritic cells DC2.4 (Cell Bank of the Chinese Academy of Sciences), and Chinese hamster ovary cells CHO (ATCC) were used as verified cell lines for liposome transfection. PBMC, Jurkat, and TIL cells grew in suspension, while DC2.4 and CHO cells grew by adherent culture. All the operation steps of cell culture must strictly abide by the prescribed procedures, and sterile reagents is used to perform aseptic operations under a sterile workbench. The main steps are as follows: • 1) Cell recovery: the preserved cell cryopreservation solution was taken out of the −80° C. refrigerator, and was immediately put in a 37° C. water bath for rapid and continuous shaking, and was completely melted within one minute. […] The culture bottle was placed in a 5% CO2 incubator and incubated at 37° C., and the recovery time was recorded. • 2) Cell subculture: Under the microscope, if the cell density in the field of view reaches 80%-90%, the cells can be subcultured. […]

[4] = system: TIL cells; experiment: In vitro transfection of TIL cells with EGFP mRNA LNP preparation; format: cell-based, human
Description: The description is based on peripheral blood mononuclear cells PBMC (Shanghai Oribiotech Co., Ltd.), human peripheral blood leukemia T cell Jurkat (ATCC), tumor infiltrating lymphocyte TIL (isolated from resected tumor tissue of a liver cancer patient, the preparation method refers to CN114763530A), mouse bone marrow-derived dendritic cells DC2.4 (Cell Bank of the Chinese Academy of Sciences), and Chinese hamster ovary cells CHO (ATCC) were used as verified cell lines for liposome transfection. PBMC, Jurkat, and TIL cells grew in suspension, while DC2.4 and CHO cells grew by adherent culture. All the operation steps of cell culture must strictly abide by the prescribed procedures, and sterile reagents is used to perform aseptic operations under a sterile workbench. The main steps are as follows: • 1) Cell recovery: the preserved cell cryopreservation solution was taken out of the −80° C. refrigerator, and was immediately put in a 37° C. water bath for rapid and continuous shaking, and was completely melted within one minute. Fresh medium was added to the 15 mL centrifuge tube in advance, and the cell solution was added to the centrifuge tube in a biological safety cabinet. A centrifuge tube of the same quality was taken and placed symmetrically in a centrifuge, centrifuged at a low speed at 1200 rpm for 5 min. After centrifugation, the supernatant was removed, and an appropriate amount of medium was slowly added along the tube wall. After the cells were evenly dispersed by blowing gently, the cell suspension was pipette and added to the culture bottle prepared in advance. The state and distribution of the cells in the early stage of recovery were observed under a microscope. The culture bottle was placed in a 5% CO2 incubator and incubated at 37° C., and the recovery time was recorded. • 2) Cell subculture: Under the microscope, if the cell density in the field of view reaches 80%-90%, the cells can be subcultured. Adherent cells need to be digested with trypsin. […]

[5] = system: Jurkat cells; experiment: In vitro transfection of Jurkat cells with EGFP mRNA LNP preparation; format: cell-based, human
Description: as §1

[6] = In vitro stability test of LNP preparation stored at 4-8 °C; format: physicochemical; conditions: stored at 4-8° C. for 16 weeks; transfection tested on DC2.4
Description: The preparation from Example 2 was stored at 4° C.-8° C. Samples were taken every other week to test the transfection performance of the samples on DC2.4, the size of the nanoparticles and the polydispersity index PDI. The whole process lasted 16 weeks. […] Other LNP preparations were stored at 4-8° C. for 16 weeks, and the particle size, PDI, and cell transfection efficiency also maintained the initial state.

[7] = after in vitro transfection, ApoE4 did not affect viability

Row | Entrapment Efficiency [1] | PDI [2] | Particle Size [2] | SMILES | other results
1 | 89.80% | 0.173 | 91.6 | CCCCCCCCCCC(O)CN(CCN1CCN(CCN(CCN(CC(O)CCCCCCCCCC)CC(O)CCCCCCCCCC)CCN(CC(O)CCCCCCCCCC)CC(O)CCCCCCCCCC)CC1)CC(O)CCCCCCCCCC (centres unmarked) [A-C12] | –
2 | 80.31% | 0.107 | 97.1 | CCCCCCCCCCCCC(O)CN(CCN1CCN(CCN(CCN(CC(O)CCCCCCCCCCCC)CC(O)CCCCCCCCCCCC)CCN(CC(O)CCCCCCCCCCCC)CC(O)CCCCCCCCCCCC)CC1)CC(O)CCCCCCCCCCCC (centres unmarked) [A-C14] | –
3 | 90.30% | 0.183 | 90.8 | CCCCCCCCCCCCCCC(O)CN(CCN1CCN(CCN(CCN(CC(O)CCCCCCCCCCCCCC)CC(O)CCCCCCCCCCCCCC)CCN(CC(O)CCCCCCCCCCCCCC)CC(O)CCCCCCCCCCCCCC)CC1)CC(O)CCCCCCCCCCCCCC (centres unmarked) [A-C16] | –
4 | 90.56% | 0.144 | 96.9 | CCCCCCCCCCCCCCCCC(O)CN(CCN1CCN(CCN(CCN(CC(O)CCCCCCCCCCCCCCCC)CC(O)CCCCCCCCCCCCCCCC)CCN(CC(O)CCCCCCCCCCCCCCCC)CC(O)CCCCCCCCCCCCCCCC)CC1)CC(O)CCCCCCCCCCCCCCCC (centres unmarked) [A-C18] | –
5 | 89.93% | 0.147 | 102.9 | CCCCCCCCCCC(O)CN(CCOCCN(CCOCCN(CC(O)CCCCCCCCCC)CC(O)CCCCCCCCCC)CCN1CCN(CCOCCN(CC(O)CCCCCCCCCC)CC(O)CCCCCCCCCC)CC1)CC(O)CCCCCCCCCC (centres unmarked) [B-C12, 19-(2-(4-(2-(2-(di(2-hydroxydodecyl)amino)ethoxy)ethyl)piperazin-1-yl)ethyl)-13, 15-bis(2-hydroxydodecyl)-16,22-dioxa-13,19,25-triazaheptakadecane-11,27-diol] | –
6 | 95.21% | 0.133 | 90.5 | CCCCCCCCCCCCC(O)CN(CCOCCN(CCOCCN(CC(O)CCCCCCCCCCCC)CC(O)CCCCCCCCCCCC)CCN1CCN(CCOCCN(CC(O)CCCCCCCCCCCC)CC(O)CCCCCCCCCCCC)CC1)CC(O)CCCCCCCCCCCC (centres unmarked) [B-C14] | cell viability by flow cytometry (FIG. 1) ([3]; after in vitro transfection): high viability; transfection efficiency (FIG. 2) ([3]; in the absence of AopE4): high transfection efficiency; cell viability by flow cytometry (FIG. 1) [4, 7]: high viability; transfection efficiency (FIG. 2) ([4]; in the absence of AopE4): low transfection efficiency; change of transfection efficiency with ApoE4 (FIG. 3) ([4]; with ApoE4 versus without): increased; cell viability by flow cytometry (FIG. 1) [5, 7]: high viability; transfection efficiency (FIG. 2) ([5]; in the absence of AopE4): high transfection efficiency; particle size, PDI and cell transfection efficiency on storage (FIG. 8) [6]: remained in the initial state
7 | 95.24% | 0.070 | 92.5 | CCCCCCCCCCC(O)CN(CCOCCOCCN(CCOCCOCCN(CC(O)CCCCCCCCCC)CC(O)CCCCCCCCCC)CCN1CCN(CCOCCOCCN(CC(O)CCCCCCCCCC)CC(O)CCCCCCCCCC)CC1)CC(O)CCCCCCCCCC (centres unmarked) [C-C12] | –
8 | 91.80% | 0.073 | 90.5 | CCCCCCCCCCC(O)CN(CCOCCOCCOCCN(CCOCCOCCOCCN(CC(O)CCCCCCCCCC)CC(O)CCCCCCCCCC)CCN1CCN(CCOCCOCCOCCN(CC(O)CCCCCCCCCC)CC(O)CCCCCCCCCC)CC1)CC(O)CCCCCCCCCC [D-C12] | –
9 | 92.36% | 0.168 | 97.2 | CCCCCCCCCCCCC(O)CN(CCOCCOCCOCCN(CCOCCOCCOCCN(CC(O)CCCCCCCCCCCC)CC(O)CCCCCCCCCCCC)CCN1CCN(CCOCCOCCOCCN(CC(O)CCCCCCCCCCCC)CC(O)CCCCCCCCCCCC)CC1)CC(O)CCCCCCCCCCCC [D-C14] | –
10 | 86.56% | 0.117 | 91.6 | CCCCCCCCCCCCCCC(O)CN(CCOCCOCCOCCN(CCOCCOCCOCCN(CC(O)CCCCCCCCCCCCCC)CC(O)CCCCCCCCCCCCCC)CCN1CCN(CCOCCOCCOCCN(CC(O)CCCCCCCCCCCCCC)CC(O)CCCCCCCCCCCCCC)CC1)CC(O)CCCCCCCCCCCCCC [D-C16] | –
11 | 88.54% | 0.105 | 103.0 | CCCCCCCCCCCCCCCCC(O)CC(CCOCCOCCOCCN(CCOCCOCCOCCN(CC(O)CCCCCCCCCCCCCCCC)CC(O)CCCCCCCCCCCCCCCC)CCN1CCN(CCOCCOCCOCCN(CC(O)CCCCCCCCCCCCCCCC)CC(O)CCCCCCCCCCCCCCCC)CC1)CC(O)CCCCCCCCCCCCCCCC [D-C18] | –
12 | 85.62% | 0.119 | 85.2 | CCCCCCCCCCCCC(O)CN(CCN(CCN1CCN(C)CC1)CCN(CC(O)CCCCCCCCCCCC)CC(O)CCCCCCCCCCCC)CC(O)CCCCCCCCCCCC (centres unmarked) [E-C14] | –
13 | 95.21% | 0.131 | 82.4 | CCCCCCCCCCCCC(O)CN(CCOCCN(CCOCCN(CC(O)CCCCCCCCCCCC)CC(O)CCCCCCCCCCCC)CCN1CCN(C)CC1)CC(O)CCCCCCCCCCCC (centres unmarked) [F-C14] | –
14 | 84.02% | 0.180 | 86.4 | CCCCCCCCCCCCC(O)CN(CCOCCOCCN(CCOCCOCCN(CC(O)CCCCCCCCCCCC)CC(O)CCCCCCCCCCCC)CCN1CCN(C)CC1)CC(O)CCCCCCCCCCCC (centres unmarked) [G-C14] | –
15 | 91.67% | 0.099 | 94.8 | CCCCCCCCCCCCC(O)CN(CCOCCOCCOCCN(CCOCCOCCOCCN(CC(O)CCCCCCCCCCCC)CC(O)CCCCCCCCCCCC)CCN1CCN(C)CC1)CC(O)CCCCCCCCCCCC (centres unmarked) [H-C14] | –
